Article PMC7906907, “Targeting STAT3 by a small molecule suppresses pancreatic cancer progression” (Oncogene, 2021)

Assays:
[1] = biological target: T1, STAT3-SH2 (Homo sapiens, UniProt P40763); test: Microscale thermophoresis (MST) assay, STAT3-SH2; type: binding
T1 construct: made in house
Text: (§1) Fig. 3 N4 interacts with the STAT3-SH2 domain and interferes with the STAT3-EGFR and STAT3-NF-κB interactions. […] C–E The binding between N4 and STAT3 was examined in (C) SPR and (D) MST experiments. His-STAT3^127-722 protein was purified and used to examine the affinity between STAT3 and N4. (E) The binding between N4 and STAT3^SH2 was confirmed in MST assays. STAT3-SH2 protein was purified and labeled. N4 was serially diluted and mixed with equal volumes of labeled STAT3^SH2 protein. The MST signal was measured, and the data were analyzed by MO analysis software. F, G The FLAG-tag and HA-tag STAT3 expression plasmid was transfected into 293 T cells, followed by the addition of the indicated concentrations of N4. After 24 h, cells were lysed, and immunoprecipitation experiments were performed as described in Materials and Methods. H N4 represses STAT3 dimerization in pancreatic cancer cells. I After a 24 h treatment with 2 μM N4, pancreatic cancer cells were stimulated with IL-6 for 30 min. Cell lysates were immunoprecipitated with STAT3 overnight. […]
The MST assay was previously described. Binding affinities of N4 with the purified His-STAT3-SH2 were measured using the Monolith NT.115 device (NanoTemper Technologies). […] The samples were then loaded into premium capillaries (NanoTemper Technologies) and measured using the Monolith NT.115 device. […]

[2] = biological target: T2, STAT3-NF-κB complex (Homo sapiens, UniProt P40763); test: Co-immunoprecipitation, STAT3-NF-κB interaction; type: cell-based; conditions: PANC-1 cells, 2 μM, 24 h
T2 construct: endogenous in cells; host or cells: PANC-1
T2 sequence (P40763 2-770 limits assumed, one chain of several): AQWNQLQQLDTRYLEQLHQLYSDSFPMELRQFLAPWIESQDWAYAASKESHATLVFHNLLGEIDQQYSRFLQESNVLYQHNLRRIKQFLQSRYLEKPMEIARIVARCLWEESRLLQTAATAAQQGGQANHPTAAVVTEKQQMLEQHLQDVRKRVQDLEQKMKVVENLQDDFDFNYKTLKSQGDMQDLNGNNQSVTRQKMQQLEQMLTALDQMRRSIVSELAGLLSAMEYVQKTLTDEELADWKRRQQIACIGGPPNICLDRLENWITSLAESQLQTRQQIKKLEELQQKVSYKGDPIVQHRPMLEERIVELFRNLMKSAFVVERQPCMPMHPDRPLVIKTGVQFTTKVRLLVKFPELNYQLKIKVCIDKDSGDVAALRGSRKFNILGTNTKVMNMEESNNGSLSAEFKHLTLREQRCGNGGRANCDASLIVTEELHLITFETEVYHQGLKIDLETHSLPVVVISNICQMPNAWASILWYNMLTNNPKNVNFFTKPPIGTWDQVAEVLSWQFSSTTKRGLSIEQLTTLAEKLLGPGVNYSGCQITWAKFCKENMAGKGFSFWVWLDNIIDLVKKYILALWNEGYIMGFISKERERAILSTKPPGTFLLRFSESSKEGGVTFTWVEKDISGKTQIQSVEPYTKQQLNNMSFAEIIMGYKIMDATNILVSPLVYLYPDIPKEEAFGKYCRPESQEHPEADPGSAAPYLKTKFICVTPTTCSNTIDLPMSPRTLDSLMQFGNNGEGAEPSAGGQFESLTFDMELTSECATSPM
Text: as §1, with “overnight. The precipitates were washed, suspended in non-reducing sample buffer, and boiled for 10 min. The indicated antibodies were used for western blot assays.” for “overnight.”
(§2) Co-IP was performed as previously described. […] After overnight incubation, the precipitates were washed and analyzed using western blotting.

[3] = tested on: CAPAN-2, PANC-1, and MIAPACA-2 cells; test: Colony formation; type: cell-based; conditions: 7 days
Description: Fig. 4 N4 suppresses pancreatic cancer cell proliferation and migration and induces apoptosis. A Pancreatic cancer cells (CAPAN-2, PANC-1, MIAPACA-2, BXPC-3, HPAC, and CFPAC-1) and normal cells (HPNE, HAF) were incubated with the indicated concentration of N4 for 48 h. MTS assays were performed to detect the N4-mediated inhibition of cell proliferation. Data are shown as mean ± SD, *P < 0.05, **P < 0.01, ***P < 0.001, ****P < 0.0001, n.s. not significant by one-way ANOVA followed by multiple comparisons. B, C CAPAN-2, PANC-1, and MIAPACA-2 cells were treated with N4 (B) or C188-9 (C) for 7 days. The cells fixed and stained, and colony numbers were calculated. Experiments were carried out in triplicate with identical results obtained. […] Apoptotic cells were analyzed as described in Materials and Methods. […] In F, after 48 h transfection, transfected cells were seeded in 96-well plates, and cells were enumerated at day 1, day 2, and day 4, In G, different cells transfected with different siRNA were treated with the indicated concentrations of N4, and cell viability measured after a 48 h treatment. Data are expressed as mean ± SD, *P < 0.05, ***P < 0.001, n.s. not significant by one-way ANOVA followed by multiple comparisons. […] Data are expressed as mean ± SD, *P < 0.05, ***P < 0.001, n.s. not significant; Student’s t tests were performed. […]

[4] = biological target: T3, STAT3–EGFR interaction (Homo sapiens, UniProt P40763); test: Co-immunoprecipitation, STAT3–EGFR interaction; type: cell-based; conditions: PANC-1 cells, 2 μM, 24 h
T3 construct: endogenous in cells; host or cells: PANC-1
T3 sequence (P40763 2-770 limits assumed): as the sequence (P40763 2-770 limits assumed, one chain of several) above
Text: as §1, with “overnight. The precipitates were washed, suspended in non-reducing sample buffer, and boiled for 10 min. The indicated antibodies were used for western blot assays.” for “overnight.”
as §2

T1 sequence (P40763 580-670 limits assumed): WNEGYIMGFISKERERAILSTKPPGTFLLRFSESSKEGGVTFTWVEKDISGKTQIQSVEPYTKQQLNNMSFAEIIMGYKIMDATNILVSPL

SMILES: COc1cc2c(cc1C(=O)Nc1cccc3cccnc13)CCC1C(C)(C)C(=O)C(C#N)=C[C@]21C (stereo partly shown) [N4]
- Kd [1]: 1.01 µM
- interaction between STAT3 and NF-κB [2]: blocked
- colony formation, compared with C188-9 and BP-1-102 [3]: more potently inhibited
- STAT3–EGFR interaction [4]: inhibited
